{"source": "ChEMBL document CHEMBL1122538", "about": "“Functional group contributions to drug-receptor interactions” (J Med Chem, 1984)"}
{"assay": "Binding energy by using the equation deltaG obsd = -RT ln KD", "assay_type": "ADME", "units": {"Binding energy": "kcal/mol"}}
{"smiles": "O=C(O)C(=O)O", "note": "[OXALIC ACID]", "Binding energy": 7.8}
{"smiles": "O=C(O)C(Cc1ccccc1)OP(=O)(O)O", "note": "(stereo not given)", "Binding energy": 9.3}
{"smiles": "O=C1CCCN1CC#CCN1CCCC1", "note": "[OXOTREMORINE]", "Binding energy": 11.7}
{"smiles": "CN1CCC(=C2c3ccccc3CCc3sccc32)CC1", "note": "[PIZOTYLINE]", "Binding energy": 13}
{"smiles": "O=C(NC1CCN(CCc2c[nH]c3ccccc23)CC1)c1ccccc1", "note": "[INDORAMIN]", "Binding energy": 11.5}
{"smiles": "COc1ccc2cc([C@H](C)C(=O)O)ccc2c1", "note": "[NAPROXEN]", "Binding energy": 8.5}
{"smiles": "Cc1c(O)oc2ccccc2c1=O", "Binding energy": 7}
{"smiles": "CC(C)NCC(O)COc1cccc2ccccc12", "note": "(stereo not given) [PROPRANOLOL]", "Binding energy": 12.8}
{"smiles": "O=C(O)c1ccc(C(=O)O)c(C(=O)O)c1", "Binding energy": 5.2}
{"smiles": "CC(=O)OC(Cc1ccc(C=O)cc1)c1ccc(C=O)cc1", "note": "(stereo not given)", "Binding energy": 6.4}
{"smiles": "CCC1(c2ccccc2)C(=O)NC(=O)N(C)C1=O", "note": "(stereo not given) [MEPHOBARBITAL]", "Binding energy": 7.3}
{"smiles": "NC(=O)C1(N2CCCCC2)CCN(CCCC(=O)c2ccc(F)cc2)CC1", "note": "[PIPAMPERONE]", "Binding energy": 12.4}
{"smiles": "CC(Oc1c(Cl)cccc1Cl)C1=NCCN1", "note": "(stereo not given) [LOFEXIDINE]", "Binding energy": 11.8}
{"smiles": "O=C1NC(=O)C(c2ccccc2)(c2ccccc2)N1", "note": "[PHENYTOIN]", "Binding energy": 11.2}
{"smiles": "C=C1CC[C@H](O)C/C1=C/C=C1\\CCC[C@]2(C)[C@@H]([C@H](C)CCC(O)C(C)(C)O)CC[C@@H]12", "note": "(stereo not given in full)", "Binding energy": 13.2}
